Structures are written as SMILES. Where only a bound is given, the exact number is not on record here.

The IC50 is the concentration that inhibits the measured activity by half. Low values mean inhibition by little substance, high ones a need for much substance.

A short description of data set [1]: Pharmacovigilance analysis of A.D.R. in EudraVigilance database. The arrangement: species or system human. As to conditions: for rhabdomyolysis, % of A.D.R.: within musculoskeletal and connective tissue disorders; for Proportional Reporting Ratio (P.R.R.) hypoglycemia: within the KATP channel blockers. The text has this: All coding preferred terms per System Organ Class (S.O.C.) were screened in the EudraVigilance database (http://www.adrreports.eu/ accessed on 1 May 2021), and those potentially associated with KATP channel blocking actions were reported and subject to analysis.
The data were extracted from EudraVigilance, collected, and analyzed on Microsoft 365 Excel software package (Microsoft 10.00). The not specified category was not included in the calculation. The duplication of a specific report per S.O.C. was evaluated manually and excluded from the analysis.
The Proportional Reporting Ratio (P.R.R.) was calculated using the following equation: a/(a+c)/b/(b + d) where a is the reaction of interest to a given drug of interest, b is the reaction of interest for all other drugs in the class, c are all other reactions to a given drug of interest, and d are all other reactions to all other drugs in the class. Signal definition: P.R.R. ≥ 2, a minimum of three ratios/cases for the reaction of interest, X^2 ≥ 4. No signal is identified if P.R.R. is = 1 [47].

The test system of data set [2] is KATP channels of calvaria primary bone cells. In words: KATP currents in cell-attached patches of calvaria primary bone cells. It counts as cell-based, mice. The procedure: (§1) The culture of primary bone cells from adult mice was obtained from long bones (tibia and femur) and calvaria, as previously described. Bones were collected, cleaned, and flushed for removing the internal bone marrow cells. Small bone pieces of around 1 mm^3 were treated with trypsin-EDTA 0.25% (w/v) for 1 h and with 0.2% collagenase solution for an additional hour in a shaking water bath to remove all remaining soft tissue and adherent cells. Clean bone pieces have been cultured in basal medium enriched with 50 µg/mL of ascorbic acid. Osteoblasts from femora (Figure S1A, Supplementary Material) and calvaria chips (Figure S1B) were positive to Alizarin red staining (Figure S1C). The marker of osteoblasts was positive, as tested by the PCR expression analysis on cell pellets (Figure S1D).
(§2) The solutions for whole-cell and cell attached patches were as follows. The pipette solution contained 132 mM KCl, 1 mM ethylene glycol-bis(β-aminoethylether)-N,N,N′,N′-tetraaceticacid (EGTA), 10 mM NaCl, 2 mM MgCl2, 10 mM HEPES, 1 mM Na2ATP, and 0.3 mM Na2GDP (pH = 7.2). The bath solution contained 142 mM NaCl, 2.8 mM KCl, 1 mM CaCl2, 1 mM MgCl2, 11 mM glucose, and 10 mM HEPES (pH = 7.4).
(§3) The whole-cell and cell-attached patch-clamp experiments were performed in asymmetrical K^+ ion concentration in physiological conditions using pipettes with the resistance of 3–5 MΩ.
Drug actions on the channel currents recorded during instantaneous I/V relationships were investigated by applying a depolarization protocol, in response to voltage pulses from −180 mV to +100 mV (Vm) in 20 mV steps. Currents were expressed as densities (pA/pF) to control for cell size/capacitance differences. All experiments were performed at room temperature (20–22 °C) and sampled at 2 kHz (filter = 1 kHz) using an Axopatch-1D amplifier equipped with a CV-4 headstage (Axon Instruments; Foster City, CA, USA). […] Seal resistance was continuously monitored during the experiment.
The percentage of KATP current inhibition induced by ZOL was calculated as (I CTRL-I drug)/(I CTRL-I BaCl2) × −100. […]

In data set [3] the test system is KATP channels of femora primary bone cells. In words: KATP currents in cell-attached patches of femora (long bone) primary bone cells. Type of data set: cell-based, mice. The procedure: as §1, §2, §3
Drug actions on the channel currents recorded during instantaneous I/V relationships were investigated by applying a depolarization protocol, in response to voltage pulses from −180 mV to +100 mV (Vm) in 20 mV steps. Currents were expressed as densities (pA/pF) to control for cell size/capacitance differences. All experiments were performed at room temperature (20–22 °C) and sampled at 2 kHz (filter = 1 kHz) using an Axopatch-1D amplifier equipped with a CV-4 headstage (Axon Instruments; Foster City, CA, USA). Drug solutions were applied using a fast perfusion system during the continuous monitoring of the seal resistance at 18–22 °C room temperature in excised patches. In whole-cell and cell-attached patch-clamp experiments, before recording, the cells were equilibrated for 10 s with the solution. Data acquisition and analysis were performed using pCLAMP 10 software suite (Axon Instruments; Foster City, CA, USA), as previously described. Seal resistance was continuously monitored during the experiment.
The percentage of KATP current inhibition induced by ZOL was calculated as (I CTRL-I drug)/(I CTRL-I BaCl2) × −100. The concentration response data of ZOL against different KATP channel currents were fitted by an algorithm using the non-linear dynamic fitting routine of Sigma Plot, 10.0.

Where [4] appears, read: Femora primary bone cells, cell-attached patches.

Consider `CCOc1cc(CC(=O)N[C@@H](CC(C)C)c2ccccc2N2CCCCC2)ccc1C(=O)O` [repaglinide], for which, in data set [1], the “hypoglycemia, % of the A.D.R. per S.O.C.” value turned out to be 84.6%; the “rhabdomyolysis, % of A.D.R.” value is reported as 17.8%; the “Proportional Reporting Ratio (P.R.R.) hypoglycemia” value is given as not below 2.

Regarding `CCC1=C(C)CN(C(=O)NCCc2ccc(S(=O)(=O)NC(=O)N[C@H]3CC[C@H](C)CC3)cc2)C1=O` [glimepiride], in data set [1], the “hypoglycemia, % of the A.D.R. per S.O.C.” value was determined as 75.6%; the “rhabdomyolysis, % of A.D.R.” value is 17.7%; the “Proportional Reporting Ratio (P.R.R.) hypoglycemia” value is not below 2.

Take `COc1ccc(Cl)cc1C(=O)NCCc1ccc(S(=O)(=O)NC(=O)NC2CCCCC2)cc1` [Glibenclamide, 5-chloro-N-(2-{4-[(cyclohexylcarbamoyl)sulfamoyl]phenyl}ethyl)-2-methoxybenzamide]: in data set [2], it took 10.2 nM to reach half-maximal inhibition (IC50), the Imax % is given as −93 ± 14 n = 18 cells % and the Slope came out at 0.5 ± 0.03. Further, the “inhibition of KATP currents in C-A patches (in words)” value in data set [3] (C-A patches, nanomolar concentrations, Figure 1C) was “markedly reduced”. In data set [3] (setting [4]), the IC50 came to 5.07 nM, the Imax % is listed as −88.32 ± 21 n = 13 cells % and the Slope is reported as 0.4 ± 0.08.

(Values after publication PMC8465290, “Zoledronic Acid as a Novel Dual Blocker of KIR6.1/2-SUR2 Subunits of ATP-Sensitive K^+ Channels: Role in the Adverse Drug Reactions” (Pharmaceutics, 2021).)
